Measurements from PMC8976029, “Gut microbiota production of trimethyl-5-aminovaleric acid reduces fatty acid oxidation and accelerates cardiac hypertrophy” (Nature Communications, 2022).

Target: T1, OCTN2 (hOCTN2) (Homo sapiens, UniProt O76082)
T1 construct: gene SLC22A5; human OCTN2 stably overexpressed in MDCK cells; no tag stated
T1 sequence (O76082 1-557): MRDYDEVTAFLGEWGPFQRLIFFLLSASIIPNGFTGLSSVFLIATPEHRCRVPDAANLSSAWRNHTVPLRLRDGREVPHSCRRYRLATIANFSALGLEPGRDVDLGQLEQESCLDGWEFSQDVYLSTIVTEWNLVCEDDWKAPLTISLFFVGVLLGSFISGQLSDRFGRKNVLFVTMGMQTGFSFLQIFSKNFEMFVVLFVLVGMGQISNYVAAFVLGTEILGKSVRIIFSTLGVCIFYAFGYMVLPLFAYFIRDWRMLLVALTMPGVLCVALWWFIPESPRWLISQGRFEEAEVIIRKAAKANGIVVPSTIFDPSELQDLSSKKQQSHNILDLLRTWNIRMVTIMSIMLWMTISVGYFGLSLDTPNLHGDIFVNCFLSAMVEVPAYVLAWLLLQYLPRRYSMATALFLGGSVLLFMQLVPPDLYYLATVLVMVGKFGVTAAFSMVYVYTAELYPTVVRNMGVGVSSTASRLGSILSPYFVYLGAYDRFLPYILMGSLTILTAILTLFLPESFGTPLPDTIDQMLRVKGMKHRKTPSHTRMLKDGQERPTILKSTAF
Experiment: d9-carnitine uptake inhibition, LC-MS/MS
Format: cell-based
Source text: d9-carnitine uptake inhibition, LC-MS/MS on OCTN2 (hOCTN2) | TMAVA reduced the uptake of d9-carnitine in a concentration-dependent manner with an IC50 of […]

IC50: 4.15 µM
SMILES: C[N+](C)(C)CCCCC(=O)O [TMAVA, N,N,N-trimethyl-5-aminovaleric acid]
